The values that follow come from ChEMBL document CHEMBL2321809 (J Med Chem, 2013).

As a reminder, the Ki is a dissociation constant, usually derived from enzyme kinetics or from competition with a known ligand. Usually kcat/Km stands for the second-order rate constant that governs catalysis at low substrate concentration. Usually Km stands for the concentration of substrate that gives half-maximal velocity. Broadly, the kcat is the number of substrate molecules converted per active site and unit of time at saturation. As usually defined, the MIC is the smallest concentration in the dilution series that meets the test's criterion for growth inhibition.

Assay [1] is described as follows: Inhibition of Beta-lactamase SHV-1 K234R protein mutant in Escherichia coli DH10B by Henri-Michaelis-Menten steady state equation analysis.
A short description of assay [2]: Inhibition of wild type Beta-lactamase SHV-1 in Escherichia coli DH10B by Henri-Michaelis-Menten steady state equation analysis.
Assay [3] concerns Escherichia coli. Kind of assay: Selectivity ratio of Ki for Beta-lactamase SHV-1 in Escherichia coli DH10B to Ki for Beta-lactamase SHV-1 K234R protein mutant in Escherichia coli DH10B.
Assay [4] has as its system Escherichia coli. Put plainly: Binding affinity to Beta-lactamase SHV-1 K234R protein mutant in Escherichia coli DH10B assessed as melting temperature at 50 uM by circular dichroism analysis. (In general: Circular dichroism is the unequal absorption of left and right circularly polarised light.)
For assay [5], the system named is Escherichia coli. Kind of assay: Binding affinity to wild type Beta-lactamase SHV-1 in Escherichia coli DH10B assessed as melting temperature at 50 uM by circular dichroism analysis.
Assay [6] has as its system Escherichia coli. Kind of assay: Binding affinity to Beta-lactamase SHV-1 K234R protein mutant in Escherichia coli DH10B assessed as change in secondary structure at 50 uM by circular dichroism analysis.
Assay [7] concerns Escherichia coli. Put plainly: Binding affinity to wild type Beta-lactamase SHV-1 in Escherichia coli DH10B assessed as change in secondary structure at 50 uM by circular dichroism analysis.
For assay [8], the system named is Escherichia coli. Kind of assay: Ratio of Kcat to Km for Beta-lactamase SHV-1 K234R protein mutant in Escherichia coli DH10B.
Assay [9] relates to Escherichia coli. Put plainly: Ratio of Kcat to Km for wild type Beta-lactamase SHV-1 in Escherichia coli DH10B.
In assay [10] the test system is Escherichia coli. Put plainly: Activity of Beta-lactamase SHV-1 K234R protein mutant in Escherichia coli DH10B by Henri-Michaelis-Menten steady state equation analysis.
For assay [11], the system named is Escherichia coli. Kind of assay: Activity of wild type Beta-lactamase SHV-1 in Escherichia coli DH10B by Henri-Michaelis-Menten steady state equation analysis.
Assay [12] relates to Escherichia coli. Kind of assay: Antimicrobial activity against Escherichia coli DH10B expressing Beta-lactamase SHV-1 K234X protein mutant by CLSI agar dilution method. The format is functional.
In assay [13] the test system is Escherichia coli. Kind of assay: Antimicrobial activity against Escherichia coli DH10B expressing Beta-lactamase SHV-1 K234A protein mutant by CLSI agar dilution method. Format: functional.
Assay [14] has as its system Escherichia coli. Kind of assay: Antimicrobial activity against Escherichia coli DH10B expressing Beta-lactamase SHV-1 K234R protein mutant by CLSI agar dilution method. Format: functional. A general note: Agar dilution tests growth on a series of plates holding different concentrations.
Assay [15] relates to Escherichia coli. Put plainly: Antimicrobial activity against Escherichia coli DH10B expressing wild type Beta-lactamase SHV-1 by CLSI agar dilution method. Format: functional.
Assay [16] relates to Escherichia coli. Kind of assay: Antimicrobial activity against Escherichia coli DH10B by CLSI agar dilution method. The format is functional.
For assay [17], the system named is Escherichia coli. Kind of assay: Antimicrobial activity against Escherichia coli DH10B expressing Beta-lactamase SHV K234R mutant by CLSI agar dilution method in presence of ampicillin. The format is functional.
In assay [18] the test system is Escherichia coli. Kind of assay: Antimicrobial activity against Escherichia coli DH10B expressing wild type Beta-lactamase SHV1 gene by CLSI agar dilution method in presence of ampicillin. The format is functional.
The subject of assay [19] is Escherichia coli. Kind of assay: Antimicrobial activity against Escherichia coli DH10B by CLSI agar dilution method in presence of ampicillin. The format is functional.
Assay [20] has as its system Escherichia coli. Kind of assay: Antimicrobial activity against Escherichia coli DH10B expressing Beta-lactamase SHV K234X mutant by CLSI agar dilution method in presence of ampicillin. Format: functional.
The subject of assay [21] is Escherichia coli. Put plainly: Antimicrobial activity against Escherichia coli DH10B expressing Beta-lactamase SHV K234A mutant by CLSI agar dilution method in presence of ampicillin. The format is functional.

In brackets after ≈: the same amount, converted by molar mass. Activity calls are given as the source filed them.

For the compound `O=C(Cc1cccs1)N[C@@H](Cc1cccc(C(=O)O)c1)B(O)O`, the Ki in assay [1] came out at 12 nM; in assay [2], 460 nM.
Take `CCOc1ccc2ccccc2c1C(=O)N[C@@H](Cc1cccc(C(=O)O)c1)B(O)O`: the Ki in [1] worked out at 48 nM; in assay [2], 37 nM.
Take `N[C@@H](C(=O)N[C@@H](Cc1cccc(C(=O)O)c1)B(O)O)c1ccccc1`: the Ratio Ki in assay [3] amounted to 20. Besides, the figures for the Tm in assay [4] and in assay [5] were 54.8 °C and 61.4 °C, respectively. For the same compound, the Ki was determined as 2.4 nM in [1] and 56 nM in assay [2].
Turning to `CCN1CCN(C(=O)N[C@@H](C(=O)N[C@@H](Cc2cccc(C(=O)O)c2)B(O)O)c2ccc(O)cc2)C(=O)C1=O`, the Ki in assay [1] amounted to 13.5 nM; in [2] it was 9.3 nM.
With `O=C(Cc1cccs1)NCB(O)O`, the inhibition entry in assay [6] is “inactive”. The inhibition entry in assay [7] is “Active”. For the same compound, the results for the Tm in assay [4] and in [5] were 48.9 °C and 55.1 °C, respectively. Moreover, the Ki in assay [1] was 61000 nM; in assay [2], 20000 nM.
`O=C(Cc1cccs1)N[C@@H]1C(=O)N2C(C(=O)O)=C(/C=C/c3ccc([N+](=O)[O-])cc3[N+](=O)[O-])CS[C@H]12`: the kcat/Km was 4.3e+06 M⁻¹ s⁻¹ in [8] and 1.41e+07 M⁻¹ s⁻¹ in assay [9]. Besides, the Km in [10] was found to be 10.4 µM; in [11] it was 24.7 µM. The kcat amounted to 45.2 s⁻¹ in [10] and 348 s⁻¹ in [11].
`CC1(C)S[C@@H]2[C@H](NC(=O)[C@H](N)c3ccccc3)C(=O)N2[C@H]1C(=O)O` [AMPICILLIN]: the MIC in assay [12] is 4 µg/mL (≈ 11.4 µM); in [13], 32 µg/mL (≈ 91.6 µM); in [14] it was 16400 µg/mL (≈ 46900 µM); in assay [15] it was greater than 16400 µg/mL; in assay [16], 1 µg/mL (≈ 2.86 µM).
`CC(=O)OCC1=C(C(=O)O)N2C(=O)[C@@H](NC(=O)Cc3cccs3)[C@H]2SC1` [CEPHALOTHIN]: in assay [9], the kcat/Km worked out at 870000 M⁻¹ s⁻¹. The Km stood at 29 µM in assay [10] and 48.9 µM in assay [11]. Moreover, the kcat in [11] came to 42.6 s⁻¹. Also, the minimum inhibitory concentration (MIC) in [12] came to 8 µg/mL (≈ 20.2 µM); in assay [13] it was 8 µg/mL (≈ 20.2 µM); in assay [14], 16 µg/mL (≈ 40.4 µM); in [15] it was 256 µg/mL (≈ 646 µM); in assay [16], 2 µg/mL (≈ 5.04 µM).
In the case of `O=C(O)[C@H]1/C(=C/CO)O[C@@H]2CC(=O)N21` [CLAVULANIC ACID], the inhibition result in [6] and in [7] was “Active” each time. Besides, the Tm in assay [4] was found to be 46.1 °C; in [5], 55 °C. The MIC is 16 µg/mL in assay [17], 4 µg/mL in [18] and less than 0.06 µg/mL in assay [19].
As for `CCN1CCN(C(=O)N[C@@H](C(=O)N[C@@H]2C(=O)N3[C@@H]2SC(C)(C)[C@@H]3C(=O)O)c2ccccc2)C(=O)C1=O` [PIPERACILLIN], in [9], the kcat/Km amounted to 1.58e+07 M⁻¹ s⁻¹. Besides, the Km stood at 305 µM in [10] and 74.6 µM in [11]. Further, in assay [11], the kcat was 1180 s⁻¹. Also, the MIC is 4 µg/mL (≈ 7.73 µM) in assay [12]; 8 µg/mL (≈ 15.5 µM) in [13]; 2050 µg/mL (≈ 3960 µM) in assay [14]; greater than 4100 µg/mL in assay [15]; 1 µg/mL (≈ 1.93 µM) in assay [16].
For `CC1(C)[C@H](C(=O)O)N2C(=O)C[C@H]2S1(=O)=O` [SULBACTAM], the inhibition entry in assay [6] was “inactive”. Further, in [7], the inhibition entry is “Active”. Moreover, in [5], the Tm worked out at 54.4 °C. Also, the MIC in [20] is less than 0.06 µg/mL; in assay [21], less than 0.06 µg/mL; in assay [17], 64 µg/mL; in assay [18] it was 512 µg/mL; in assay [19], less than 0.06 µg/mL.
Take `C[C@]1(Cn2ccnn2)[C@H](C(=O)O)N2C(=O)C[C@H]2S1(=O)=O` [TAZOBACTAM]: the inhibition entry in assay [6] was “inactive”. In addition, the inhibition result in assay [7] was “Active”. Also, the Tm in assay [4] came to 49 °C; in [5], 54.4 °C. The MIC in assay [20] was less than 0.06 µg/mL; in assay [21], less than 0.06 µg/mL; in assay [17], 16 µg/mL; in assay [18], 128 µg/mL; in [19] it was less than 0.06 µg/mL.
